Laboratory results reported in US10758534B2 (Vertex Pharmaceuticals Incorporated, priority 2014, dated 2020).

Target: T1, F508del (Homo sapiens, UniProt P13569, DEL508-508)
T1 construct: expressed in transfected cells
Test: Protocol 2: FRET membrane potential optical assay (VIPR), identification of correction compounds
Format: cell-based
Conditions: Table 3; compounds of Table 1 as modulators of CFTR activity; protocol not stated
In short: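 Single-addition HTS format: F508del-expressing NIH3T3 cells pre-incubated 16 hrs at 37° C. ± compound, with 27° C. culture as positive control. Channel activation by forskolin 10 μM and genistein 20 μM upon switch to gluconate bath, pH 7.4; read-out is FRET-based depolarization signal.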

T1 sequence (P13569 with tags, fused parts or gaps DEL508-508): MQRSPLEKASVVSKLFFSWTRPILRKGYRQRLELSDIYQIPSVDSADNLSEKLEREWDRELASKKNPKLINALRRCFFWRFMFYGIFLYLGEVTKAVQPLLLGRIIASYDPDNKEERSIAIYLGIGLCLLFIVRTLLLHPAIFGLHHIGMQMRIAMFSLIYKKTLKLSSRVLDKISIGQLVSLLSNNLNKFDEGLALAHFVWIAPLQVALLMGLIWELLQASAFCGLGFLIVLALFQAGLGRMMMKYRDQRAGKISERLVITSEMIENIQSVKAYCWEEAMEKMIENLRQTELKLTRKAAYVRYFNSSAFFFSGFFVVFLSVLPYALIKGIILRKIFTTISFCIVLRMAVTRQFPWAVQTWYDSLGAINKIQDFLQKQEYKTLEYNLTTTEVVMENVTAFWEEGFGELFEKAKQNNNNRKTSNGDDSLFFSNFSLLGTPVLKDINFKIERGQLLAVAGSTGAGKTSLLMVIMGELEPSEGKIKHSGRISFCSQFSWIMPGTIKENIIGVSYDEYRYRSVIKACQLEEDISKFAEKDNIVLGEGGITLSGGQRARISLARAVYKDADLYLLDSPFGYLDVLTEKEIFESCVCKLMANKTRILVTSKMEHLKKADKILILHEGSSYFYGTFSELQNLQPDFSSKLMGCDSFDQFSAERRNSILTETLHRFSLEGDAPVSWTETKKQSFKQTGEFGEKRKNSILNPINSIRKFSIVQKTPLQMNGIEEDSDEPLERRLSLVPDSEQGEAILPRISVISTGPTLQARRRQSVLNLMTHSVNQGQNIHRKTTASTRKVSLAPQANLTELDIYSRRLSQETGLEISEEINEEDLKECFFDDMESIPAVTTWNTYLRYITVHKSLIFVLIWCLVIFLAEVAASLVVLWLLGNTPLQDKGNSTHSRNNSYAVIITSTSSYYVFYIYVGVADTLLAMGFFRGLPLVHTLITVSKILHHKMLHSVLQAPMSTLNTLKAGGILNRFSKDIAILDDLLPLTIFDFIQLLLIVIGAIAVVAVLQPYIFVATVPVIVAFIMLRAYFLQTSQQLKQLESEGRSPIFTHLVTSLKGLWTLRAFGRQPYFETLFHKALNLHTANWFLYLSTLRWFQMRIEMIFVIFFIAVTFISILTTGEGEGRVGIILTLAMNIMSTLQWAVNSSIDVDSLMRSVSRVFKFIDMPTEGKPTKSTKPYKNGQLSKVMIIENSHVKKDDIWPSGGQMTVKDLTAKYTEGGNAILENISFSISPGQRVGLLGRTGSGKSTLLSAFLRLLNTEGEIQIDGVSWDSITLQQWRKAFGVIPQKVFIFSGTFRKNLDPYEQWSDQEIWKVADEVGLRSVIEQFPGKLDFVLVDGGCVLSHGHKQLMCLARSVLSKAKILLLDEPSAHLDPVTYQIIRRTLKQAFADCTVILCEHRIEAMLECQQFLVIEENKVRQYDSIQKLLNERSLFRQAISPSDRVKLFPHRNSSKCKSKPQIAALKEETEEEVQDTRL

COc1cccc(S(=O)(=O)NC(=O)c2ccc(C(C)(C)C)nc2-c2ccc(C)cc2)c1 [Compound 327, 6-tert-butyl-N-(3-methoxyphenyl)sulfonyl-2-(p-tolyl)pyridine-3-carboxamide]
EC30: +++ (“+++” means <3 uM)

CC(C)(C)c1cc(C(=O)NS(=O)(=O)c2ccccc2)n(Cc2cccc3ccccc23)n1 [Compound 328, N-(benzenesulfonyl)-5-tert-butyl-2-(1-naphthylmethyl)pyrazole-3-carboxamide]
EC30: +++ (“+++” means <3 uM)

Cc1cccc(C)c1Cn1nc(-c2ccc(N3CCCCC3)nc2)cc1C(=O)NS(=O)(=O)c1ccccc1 [Compound 329, N-(benzenesulfonyl)-2-[(2,6-dimethylphenyl)methyl]-5-[6-(1-piperidyl)-3-pyridyl]pyrazole-3-carboxamide]
EC30: +++ (“+++” means <3 uM)

Cc1cc(C)c(Oc2nc(C(C)(C)C)ccc2C(=O)NS(=O)(=O)c2cccnc2)c(C)c1 [Compound 330, 6-tert-butyl-N-(3-pyridylsulfonyl)-2-(2,4,6-trimethylphenoxy)pyridine-3-carboxamide]
EC30: +++ (“+++” means <3 uM)

Cc1cccc(C)c1Cn1c(C(=O)NS(=O)(=O)c2cccc(N)c2)cc2ccccc21 [Compound 331, N-(3-aminophenyl)sulfonyl-1-[(2,6-dimethylphenyl)methyl]indole-2-carboxamide]
EC30: +++ (“+++” means <3 uM)

CC(=O)c1cccc(S(=O)(=O)NC(=O)c2cc(C(C)(C)C)nn2Cc2c(C)cc(C)cc2C)c1 [Compound 332, N-(3-acetylphenyl)sulfonyl-5-tert-butyl-2-[(2,4,6-trimethylphenyl)methyl]pyrazole-3-carboxamide]
EC30: +++ (“+++” means <3 uM)

Cc1cccc(C)c1Cn1nc(-c2ccc(F)cc2)cc1C(=O)NS(=O)(=O)c1ccccc1 [Compound 333, N-(benzenesulfonyl)-2-[(2,6-dimethylphenyl)methyl]-5-(4-fluorophenyl)pyrazole-3-carboxamide]
EC30: +++ (“+++” means <3 uM)

CC(C)(C)c1ccc(C(=O)NS(=O)(=O)c2cccc(N)n2)c(-c2ccccc2)n1 [Compound 334, N-[(6-amino-2-pyridyl)sulfonyl]-6-tert-butyl-2-phenyl-pyridine-3-carboxamide]
EC30: ++ (“++” means between 3 uM and 10 uM)

COc1cccc(S(=O)(=O)NC(=O)c2cc3ccccc3n2Cc2c(C)cc(C)cc2C)c1 [Compound 335, N-(3-methoxyphenyl)sulfonyl-1-[(2,4,6-trimethylphenyl)methyl]indole-2-carboxamide]
EC30: +++ (“+++” means <3 uM)

COc1ccc2c(c1)cc(C(=O)NS(=O)(=O)c1cccc(N)c1)n2Cc1c(C)cc(C)cc1C [Compound 336, N-(3-aminophenyl)sulfonyl-5-methoxy-1-[(2,4,6-trimethylphenyl)methyl]indole-2-carboxamide]
EC30: +++ (“+++” means <3 uM)

CC(C)Oc1ccc(-c2ccc(C(=O)NS(=O)(=O)c3cccc(N)n3)c(N3[C@H](C)CC[C@@H]3C)n2)cn1 [Compound 337, N-[(6-amino-2-pyridyl)sulfonyl]-2-[(2S,5R)-2,5-dimethylpyrrolidin-1-yl]-6-(6-isopropoxy-3-pyridyl)pyridine-3-carboxamide]
EC30: +++ (“+++” means <3 uM)

Cc1cc(C)c(Oc2cc(C(C)(C)C)ncc2C(=O)NS(=O)(=O)c2cccc(N)c2)c(C)c1 [Compound 338, N-(3-aminophenyl)sulfonyl-6-tert-butyl-4-(2,4,6-trimethylphenoxy)pyridine-3-carboxamide]
EC30: +++ (“+++” means <3 uM)

Cc1cccc(C)c1Cn1nc(-c2ccccc2Cl)cc1C(=O)NS(=O)(=O)c1ccccc1 [Compound 339, N-(benzenesulfonyl)-5-(2-chlorophenyl)-2-[(2,6-dimethylphenyl)methyl]pyrazole-3-carboxamide]
EC30: +++ (“+++” means <3 uM)

Cc1ccc(Oc2nc(-c3ccccc3)ccc2C(=O)NS(=O)(=O)c2cccc(N)n2)c(C)c1 [Compound 340, N-[(6-amino-2-pyridyl)sulfonyl]-2-(2,4-dimethylphenoxy)-6-phenyl-pyridine-3-carboxamide]
EC30: +++ (“+++” means <3 uM)

Cc1cc(C)c(Oc2nc(C(C)(C)C)ccc2C(=O)NS(=O)(=O)c2ccccc2)c(C)c1 [Compound 341, N-(benzenesulfonyl)-6-tert-butyl-2-(2,4,6-trimethylphenoxy)pyridine-3-carboxamide]
EC30: +++ (“+++” means <3 uM)

Cc1ccccc1C(C)n1nc(C(C)(C)C)cc1C(=O)NS(=O)(=O)c1cccc(N)c1 (stereo not shown) [Compound 342, N-(3-aminophenyl)sulfonyl-5-tert-butyl-2-[1-(o-tolyl)ethyl]pyrazole-3-carboxamide]
EC30: +++ (“+++” means <3 uM)

Cc1cc(C)c(Cn2c(C(=O)NS(=O)(=O)c3cccc(N)c3)cc3cc(Cl)ccc32)c(C)c1 [Compound 344, N-(3-aminophenyl)sulfonyl-5-chloro-1-[(2,4,6-trimethylphenyl)methyl]indole-2-carboxamide]
EC30: +++ (“+++” means <3 uM)

Cc1cc(C)c(Oc2nc(-c3ccc(F)c4c3OCO4)ccc2C(=O)NS(=O)(=O)c2cccc(N)n2)c(C)c1 [Compound 345, N-[(6-amino-2-pyridyl)sulfonyl]-6-(7-fluoro-1,3-benzodioxol-4-yl)-2-(2,4,6-trimethylphenoxy)pyridine-3-carboxamide]
EC30: +++ (“+++” means <3 uM)

Cc1cc(C)c(Cc2nc(C(C)(C)C)ccc2C(=O)NS(=O)(=O)c2cccc(N)c2)c(C)c1 [Compound 346, N-(3-aminophenyl)sulfonyl-6-tert-butyl-2-[(2,4,6-trimethylphenyl)methyl]pyridine-3-carboxamide]
EC30: +++ (“+++” means <3 uM)

COc1ccccc1-c1cc(C(=O)NS(=O)(=O)c2ccccc2)n(Cc2c(C)cccc2C)n1 [Compound 347, N-(benzenesulfonyl)-2-[(2,6-dimethylphenyl)methyl]-5-(2-methoxyphenyl)pyrazole-3-carboxamide]
EC30: +++ (“+++” means <3 uM)

COc1cccc2c1cc(C(=O)NS(=O)(=O)c1ccccc1)n2Cc1c(C)cc(C)cc1C [Compound 348, N-(benzenesulfonyl)-4-methoxy-1-[(2,4,6-trimethylphenyl)methyl]indole-2-carboxamide]
EC30: +++ (“+++” means <3 uM)

Cc1ccc(-c2nc(C(C)(C)C)ccc2C(=O)NS(=O)(=O)c2cccc(N)c2)cc1F [Compound 349, N-(3-aminophenyl)sulfonyl-6-tert-butyl-2-(3-fluoro-4-methyl-phenyl)pyridine-3-carboxamide]
EC30: ++ (“++” means between 3 uM and 10 uM)

Cc1cc(C)c(Oc2ccc(C(C)(C)C)nc2C(=O)NS(=O)(=O)c2ccccc2)c(C)c1 [Compound 350, N-(benzenesulfonyl)-6-tert-butyl-3-(2,4,6-trimethylphenoxy)pyridine-2-carboxamide]
EC30: +++ (“+++” means <3 uM)

Cc1cc(C)c(Oc2nc(-c3cc(OCC(C)C)ccc3F)ccc2C(=O)NS(=O)(=O)c2cccc(N)n2)c(C)c1 [Compound 351, N-[(6-amino-2-pyridyl)sulfonyl]-6-(2-fluoro-5-isobutoxy-phenyl)-2-(2,4,6-trimethylphenoxy)pyridine-3-carboxamide]
EC30: +++ (“+++” means <3 uM)

Cc1cc(C)c(Cn2nc(C(C)(C)C)cc2C(=O)NS(=O)(=O)c2cccc3ncccc23)c(C)c1 [Compound 352, 5-tert-butyl-N-(5-quinolylsulfonyl)-2-[(2,4,6-trimethylphenyl)methyl]pyrazole-3-carboxamide]
EC30: +++ (“+++” means <3 uM)
